Measured values taken from patent US11964943B2, “3,5-diarylidenyl-n-substituted-piperid-4-one-derived inhibitors of Stat3 pathway activity and uses thereof” (priority 2017, dated 2024).
Several values for one entry are separate records, joined by “and”; a condition that tells them apart may be missing. Identical values can stand only once. Entries after “also recorded” stand apart in the source; their conditions may differ.

Columns and labels:
[1] = tested on: HCT116-oxaliplatin resistant cells; test: MTT growth inhibition and Chou-Talalay combination index with oxaliplatin; assay type: cell-based; parameters: key to Effect: affected fraction (Fa) from MTT absorbance, 0-1; conditions: for CI values in combination with oxaliplatin: fixed and non-fixed ratio combination treatments, in many instances
Experimental: The software Calcusyn was utilized for analysis of drug interactions using the Chou-Talalay combination index method (Chou, T.-C. Drug Combination Studies and Their Synergy Quantification Using the Chou-Talalay Method. [Cancer Res. 70, 440-446 (2010)]
The affected fractions were calculated from the SRB or MTT assay absorbance values and were registered to derive the respective CI values and isobolograms. A CI value of less than 1 (one) indicates synergy.
MIT assay. Individual drug treatments and combinations were carried out as with the SRB assay. The MTT assay was carried out as previously (see Cytotoxicity studies sections) with the difference that it was completed in 96 h.

pStat3^Tyr705 = test: Immunoblotting of phosphorylated Stat3 in cancer cells; assay type: cell-based, human; conditions: for persistence of pStat3 inhibition post treatment: DU145 and A549, after 18 h treatment and drug removal; for inhibition of Stat3 tyrosine (705) phosphorylation (pStat3): DU145 and A549 cells with constitutively active Stat3, 18 h; for concentrations at which pSTAT3 is inhibited: cells with persistent Stat3 activation
Experimental: (§1) Whole cell lysates were prepared by incubation of harvested, trypsinised cells with CelLytic™ lysis buffer (Sigma-Aldrich) supplemented with 1× protease and 1× phosphatase inhibitors (Roche). Protein quantification was carried out using a protein assay kit (Bio-Rad). 40 μg of the lysates were denatured by heating for 5 min at 95° C. in sample buffer containing 100 mM Tris-Cl (pH 6.8), 4% SDS, 10% 2-mercaptoethanol, 20% glycerol, and 0.02% bromophenol blue. Precision Plus Protein Dual colour standards (Bio-Rad) were used as a molecular weight reference. For the detection of STAT3, pSTAT3, α/β tubulin, cleaved PARP, Bcl-2, Bcl-xL, FANCD2, BRCA1, EME1 and MUS81, proteins were separated on a NuPAGE 7% Tris-acetate gel (Life Technologies) and subsequently transferred to polyvinylidene difluoride membranes (Immobilon®-P transfer membrane; Millipore). […] Membranes were blocked for 1 h at ambient temperature in a blocking buffer containing 5% w/v Bovine Serum Albumin (BSA; Sigma-Aldrich) in 1×TBS, 0.1% Tween-20. All proteins were identified by incubation in a 1:1000 dilution of the respective polyclonal antibodies (Cell signaling) in blocking buffer overnight at 4° C. and subsequent incubation for 1 h with an anti-rabbit or anti-mouse secondary antibody (Cell signalling) at a dilution of 1:1000. The α/β tubulin (1:2000; Cell Signaling) and the anti-phospho-histone H2AX Antibody (1:500; Millipore) were used in the denoted dilutions. Antibody binding was visualized by enhanced chemiluminescence (Amersham) on autoradiography film (Kodak-X-Omat). Alternatively Images were captured by the GelDoc-It Imaging System Fusion Fx7 (Vilber Lourmat, Germany).
as §1, with “Immunoblotting. Whole” for “Whole”, “CelLytic™ M” for “CelLytic™”, “pSTAT3, a/0” for “pSTAT3, α/β”, “in 1×TBS” for “in 1×TBS,”, “(Cell signalling)” for “(Cell signaling)”

[2] = tested on: MDA-MB-435 cancer cell line; test: SRB antiproliferative assay, MDA-MB-435; assay type: cell-based, human
[3] = tested on: A2780-cisplatin resistant spheroids; test: Spheroid diameter measurement; assay type: cell-based; conditions: for Diameter (μm): 96 h
Experimental: For cell spheroid formation, HCT116-oxaliplatin resistant cells, A2780-cisplatin resistant cells, and HT1080 cells were seeded in Corning® Spheroid opaque-walled 96 well Microplates (ultra-low attachment; Nuclon™ Sphera™, Thermofisher) at densities of 2000 cells/well in 100 μl of cell solution and allowed to grow for 4 days, before any manipulation.
The diameters of spheroid cells were determined using Cell^F Imaging Software. A diameter corresponds to the mean value of one horizontal and one vertical measurement.

[4] = IE-8 2.0 μM 1 h, then oxaliplatin 0.1 μM 96 h
[5] = IE-8 2.0 μM 1 h, then oxaliplatin 1.0 μM 96 h
[6] = IE-8 2.0 μM 1 h, then oxaliplatin 10.0 μM 96 h
[7] = IE-8 2.0 μM 1 h, then oxaliplatin 20.0 μM 96 h
[8] = IE-8 2.0 μM 1 h, then oxaliplatin 40.0 μM 96 h
[9] = IE-8 2.0 μM 1 h, then oxaliplatin 60.0 μM 96 h
[10] = IE-8 2.0 μM 1 h, then oxaliplatin 80.0 μM 96 h
[11] = IE-8 2.0 μM 1 h, then oxaliplatin 100.0 μM 96 h
[12] = IE-8 2.0 μM 1 h, then oxaliplatin 200.0 μM 96 h
[13] = IE-8 2.5 μM 1 h, then oxaliplatin 0.1 μM 96 h
[14] = IE-8 2.5 μM 1 h, then oxaliplatin 1.0 μM 96 h
[15] = IE-8 2.5 μM 1 h, then oxaliplatin 10.0 μM 96 h
[16] = IE-8 2.5 μM 1 h, then oxaliplatin 20.0 μM 96 h
[17] = IE-8 2.5 μM 1 h, then oxaliplatin 40.0 μM 96 h
[18] = IE-8 2.5 μM 1 h, then oxaliplatin 60.0 μM 96 h
[19] = IE-8 2.5 μM 1 h, then oxaliplatin 80.0 μM 96 h
[20] = IE-8 2.5 μM 1 h, then oxaliplatin 100.0 μM 96 h
[21] = IE-8 2.5 μM 1 h, then oxaliplatin 200.0 μM 96 h
[22] = IE-8 3.0 μM 1 h, then oxaliplatin 0.1 μM 96 h
[23] = IE-8 3.0 μM 1 h, then oxaliplatin 1.0 μM 96 h
[24] = IE-8 3.0 μM 1 h, then oxaliplatin 10.0 μM 96 h
[25] = IE-8 3.0 μM 1 h, then oxaliplatin 20.0 μM 96 h
[26] = IE-8 3.0 μM 1 h, then oxaliplatin 40.0 μM 96 h
[27] = IE-8 3.0 μM 1 h, then oxaliplatin 60.0 μM 96 h
[28] = IE-8 3.0 μM 1 h, then oxaliplatin 80.0 μM 96 h
[29] = IE-8 3.0 μM 1 h, then oxaliplatin 100.0 μM 96 h
[30] = IE-8 3.0 μM 1 h, then oxaliplatin 200.0 μM 96 h
[31] = oxaliplatin 1.0 μM 1 h, 3 h later IE-8 1.0 μM until 96 h
[32] = oxaliplatin 10.0 μM 1 h, 3 h later IE-8 1.0 μM until 96 h
[33] = oxaliplatin 20.0 μM 1 h, 3 h later IE-8 1.0 μM until 96 h
[34] = oxaliplatin 40.0 μM 1 h, 3 h later IE-8 1.0 μM until 96 h
[35] = oxaliplatin 60.0 μM 1 h, 3 h later IE-8 1.0 μM until 96 h
[36] = oxaliplatin 80.0 μM 1 h, 3 h later IE-8 1.0 μM until 96 h
[37] = oxaliplatin 200.0 μM 1 h, 3 h later IE-8 1.0 μM until 96 h
[38] = oxaliplatin 400.0 μM 1 h, 3 h later IE-8 1.0 μM until 96 h

3,5-Di(3,4,5-trimethoxybenzylidene)-1-phenylpiperidin-4-one [IE-8]
CI values in combination with oxaliplatin [1]: < 1 | persistence of pStat3 inhibition post treatment (pStat3^Tyr705): at least 24 h | inhibition of Stat3 tyrosine (705) phosphorylation (pStat3) (pStat3^Tyr705): efficiently inhibits | concentrations at which pSTAT3 is inhibited (pStat3^Tyr705; 18 h): > 1 μM | IC50 ([2]; 48 h exposure): 0.15 µM

COc1cc(/C=C2\CN(c3ccccc3)C/C(=C\c3cc(OC)c(OC)c(OC)c3)C2=O)cc(OC)c1OC [IE-8, 3,5-Di(3,4,5-trimethoxybenzylidene)-1-phenylpiperidin-4-one]
CI-value [1, 4]: 1.558 | Effect [1, 4]: 0.1065 | CI-value [1, 5]: 1.979 | Effect [1, 5]: 0.0954 | CI-value [1, 6]: 2.754 | Effect [1, 6]: 0.1575 | CI-value [1, 7]: 1.58 | Effect [1, 7]: 0.315 | CI-value [1, 8]: 1.172 | Effect [1, 8]: 0.4676 | CI-value [1, 9]: 1.135 | Effect [1, 9]: 0.5256 | CI-value [1, 10]: 0.827 | Effect [1, 10]: 0.6386 | CI-value [1, 11]: 0.7749 | Effect [1, 11]: 0.678 | CI-value [1, 12]: 0.4016 | Effect [1, 12]: 0.8582 | CI-value [1, 13]: 0.721 | Effect [1, 13]: 0.5165 | CI-value [1, 14]: 1.405 | Effect [1, 14]: 0.2143 | CI-value [1, 15]: 1.985 | Effect [1, 15]: 0.231 | CI-value [1, 16]: 1.805 | Effect [1, 16]: 0.313 | CI-value [1, 17]: 0.8326 | Effect [1, 17]: 0.6087 | CI-value [1, 18]: 0.8009 | Effect [1, 18]: 0.6559 | CI-value [1, 19]: 0.5921 | Effect [1, 19]: 0.76 | CI-value [1, 20]: 0.7993 | Effect [1, 20]: 0.7021 | CI-value [1, 21]: 0.4777 | Effect [1, 21]: 0.855 | CI-value [1, 22]: 0.8489 | Effect [1, 22]: 0.527 | CI-value [1, 23]: 1.924 | Effect [1, 23]: 0.171 | CI-value [1, 24]: 1.573 | Effect [1, 24]: 0.3259 | CI-value [1, 25]: 1.453 | Effect [1, 25]: 0.4064 | CI-value [1, 26]: 0.7871 | Effect [1, 26]: 0.6743 | CI-value [1, 27]: 0.8214 | Effect [1, 27]: 0.6878 | CI-value [1, 28]: 0.5584 | Effect [1, 28]: 0.8108 | CI-value [1, 29]: 0.48 | Effect [1, 29]: 0.8527 | CI-value [1, 30]: 0.4763 | Effect [1, 30]: 0.877 | CI values in combination with oxaliplatin [1]: < 1 | CI-value [1, 31]: 5.476 | Effect [1, 31]: 0.2692 | CI-value [1, 32]: 1.482 | Effect [1, 32]: 0.6799 | CI-value [1, 33]: 0.9954 | Effect [1, 33]: 0.7838 | CI-value [1, 34]: 0.5439 | Effect [1, 34]: 0.8908 | CI-value [1, 35]: 0.5183 | Effect [1, 35]: 0.897 | CI-value [1, 36]: 0.4279 | Effect [1, 36]: 0.9184 | CI-value [1, 37]: 0.3786 | Effect [1, 37]: 0.93 | CI-value [1, 38]: 0.488 | Effect [1, 38]: 0.9045 | inhibition of IL-6 induced pStat3 (pStat3^Tyr705; A2780-cisplatin resistant cells, 18 h): the most potent inhibitor in this series; also recorded: efficiently inhibited | pStat3 inhibition after acute treatment (pStat3^Tyr705; DU145, 5 μM, 1 h): sufficient to inhibit pStat3 | persistence of pStat3 inhibition post treatment (pStat3^Tyr705): at least 24 h | inhibition of Stat3 tyrosine (705) phosphorylation (pStat3) (pStat3^Tyr705): inhibits pStat3^Tyr705 levels without affecting the total Stat3 levels; also recorded: efficiently inhibited | inhibition of constitutively active Stat3 (pStat3) (pStat3^Tyr705; HCT116-oxaliplatin resistant cells, 18 h): the most potent among these inhibitors; also recorded: efficiently inhibited the constitutively active Stat3 | pStat3 inhibition in 3D spheroids (pStat3^Tyr705; HCT116-oxaliplatin resistant or A2780-cisplatin resistant spheroids): inhibition of pStat3; also recorded: efficiently inhibited | concentrations at which pSTAT3 is inhibited (pStat3^Tyr705; 18 h): > 1 μM | IC50 ([2]; Homo sapiens, MDA-MB-435, 48 h exposure): 0.15 µM | spheroid size ([3]; 10 μM IE-8, 96 hours): markedly decreases the size of the spheroid | Diameter (μm) ([3]; IE-8 1.0 μM): 1176.0 μm | Diameter (μm) ([3]; IE-8 2.0 μM): 1037.0 μm | Diameter (μm) ([3]; IE-8 3.0 μM): 990.9 μm | Diameter (μm) ([3]; IE-8 4.0 μM): 820 μm and 819.7 μm | Diameter (μm) ([3]; IE-8 5.0 μM): 619.8 μm
